In patent publication US20050256034A1, “Dioxolane analogs for improved inter-cellular delivery” (priority 2000, published 2005):
Where “and” joins values, the source holds several entries; their conditions need not be identical. Identical values can stand only once.

test: 3H-Thymidine Incorporation Assay (24 hr drug, wash, another 48 hr; 72 hr assay); assay type: cell-based; conditions: CCRF-CEM, read-out: IC50 (3H-TdR incorporation at 72 hr) CEM/dCK- 24 h, CEM/dCK- (CCRF-CEM deoxycytidine kinase-deficient); 24 hr exposure to drug, wash, another 48 hr

| Compound | IC50 [µM] |
| --- | --- |
| Nc1ccn([C@@H]2CO[C@H](COC(=O)c3ccccc3F)O2)c(=O)n1 [Compound 190, 2-FLUORO-BENZOIC ACID 4-(4-AMINO-2-OXO-2H-PYRI- MIDIN-1-YL)-[1,3]DI- OXOLAN-2-YL METHYL ESTER] | 9.8 |

same assay, conditions: CCRF-CEM, read-out: IC50 in μM (3H-TdR incorporation at 72 hr) CEM/dCK- 24 h, CEM/dCK- (CCRF-CEM deoxycytidine kinase-deficient); 24 h exposure to drug, wash, another 48 hr

| Compound | IC50 [µM] |
| --- | --- |
| N=C(OC[C@H]1OC[C@@H](n2ccc(N)nc2=O)O1)C(Cl)(Cl)Cl [Compound 79, 2,2,2-TRICHLORO-ACETI- MIDIC ACID 4-(4-A- MINO-2-OXO-2H-PYRI- MIDIN-1-YL)-[1,3]DI- OXOLAN-2-YL- METHYL ESTER] | 63 |

same assay, conditions: MCF7, read-out: IC50 (3H-TdR incorporation at 72 hr) MCF-7 24 h, MCF-7 human breast carcinoma; 24 hr exposure to drug, wash, another 48 hr

| Compound | IC50 [µM] |
| --- | --- |
| Nc1ccn([C@@H]2CO[C@H](COC(=O)c3ccccc3F)O2)c(=O)n1 [Compound 190, 2-FLUORO-BENZOIC ACID 4-(4-AMINO-2-OXO-2H-PYRI- MIDIN-1-YL)-[1,3]DI- OXOLAN-2-YL METHYL ESTER] | 0.027 |

same assay, conditions: ratio of IC50 CEM/dCK- to IC50 CCRF-CEM

| Compound | Resistance Factor = Ratio of dCK- on Wild-type CCRF-CEM |
| --- | --- |
| CCCCC[C@H]1CC[C@H](C(=O)OC[C@H]2OC[C@@H](n3ccc(N)nc3=O)O2)CC1 [Compound 240, 4-PENTYL-CYCLO- HEXANECARBOXYLIC ACID 4-(4-AMINO-2-OXO-2H-PYRI- MIDIN-1-YL)-[1,3]DI- OXOLAN-2-YL METHYL ESTER] | ≧25 000 |
| Nc1ccn([C@@H]2CO[C@H](COC(=O)C3(c4ccccc4)CC3)O2)c(=O)n1 [Compound 223, 1-PHENYL-CYCLO- PROPANECARBOXYLIC ACID 4-(4-AMINO-2-OXO-2H-PYRI- MIDIN-1-YL)-[1,3]DI- OXOLAN-2-YL METHYL ESTER] | > 1610 |
| CC(CCCCCCc1ccccc1)C(=O)OC[C@H]1OC[C@@H](n2ccc(N)nc2=O)O1 (stereo partly drawn) [Compound 245, 2-METHYL-8-PHENYL-OCTANOIC ACID 4-(4-AMINO-2-OXO-2H-PYRI- MIDIN-1-YL)-[1,3]DI- OXOLAN-2-YL METHYL ESTER] | > 6800 |
| CCOC(OCC)(OCC)OC[C@H]1OC[C@@H](n2ccc(N)nc2=O)O1 [Compound 199, 4-Amino-1-(2-tri-ethoxymethoxymethyl-[1,3]di-oxolan-4-yl)-1H-pyri-midin-2-one] | > 10600 |

same assay, conditions: ratio of IC50 CEM/dCK- to IC50 CCRF-CEM, 24 h exposure

| Compound | Factor (Resistance Factor = Ratio of dCK- on Wild-type CCRF-CEM) |
| --- | --- |
| O=c1nc(NC2(c3ccccc3)c3ccccc3Oc3ccccc32)ccn1[C@@H]1CO[C@H](COC2(c3ccccc3)c3ccccc3Oc3ccccc32)O1 [Compound 144, 4-(9-PHENYL-9#H!-XAN- THEN-9-YLAMINO)-1-[2-(9-PHE- NYL-9#H!-XAN- THEN-9-YLOXYMETHYL)-[1,3]DI- OXOLAN-4-YL]-1#H!-PYRI- MIDIN-2-ONE] | 110 |
| CC(OC[C@H]1OC[C@@H](n2ccc(N)nc2=O)O1)OC1CCCCC1 (stereo partly drawn) [Compound 92, 4-AMINO-1-[2-(1-CYCLO- HEXYLOXY-ETH- OXYMETHYL)-[1,3]DI- OXOLAN-4-YL]-1H-PYRI- MIDIN-2-ONE] | 77 |
| CCCCC(CC)C(=O)Nc1ccn([C@@H]2CO[C@H](CO)O2)c(=O)n1 (stereo partly drawn) [Compound 99, 2-ETHYL-HEXANOIC ACID [1-(2-HYDROXYMETHYL-[1,3]DI- OXOLAN-4-YL)-2-OX- O-1,2-DIHYDRO-PYRI- MIDIN-4-YL]-AMIDE] | >20 |
| CC(C)[C@H](N)C(=O)Nc1ccn([C@@H]2CO[C@H](CO)O2)c(=O)n1.O=C(O)C(F)(F)F [Compound 280, 2-Amino-N-[1-(2-hydroxy-methyl-[1,3]dioxo-lan-4-yl)-2-oxo-1,2-di-hydro-pyrimidin-4-yl]-3-meth-yl-butyramide; trifluoroacetic acid salt] | >53 |
| CN(Cc1ccccc1)C(=O)OC[C@H]1OC[C@@H](n2ccc(N)nc2=O)O1 [Compound 140, BENZYL-METHYL-CARBAMIC ACID 4-(4-AMINO-2-OXO-2H-PYRI- MIDIN-1-YL)-[1,3]DI- OXOLAN-2-YLMETHYL ESTER] | >9 |
| CC(C)(C)OC(=O)N(CCCCC(=O)OC[C@H]1OC[C@@H](n2ccc(N)nc2=O)O1)Cc1ccccc1 [Compound 111, 5-(BENZYL-TERT-BUTOXY- CARBONYL-AMINO)-PENTANOIC ACID 4-(4-A- MINO-2-OXO-2H-PYRI- MIDIN-1-YL)-[1,3]DI- OXOLAN-2-YLMETHYL ESTER] | 13000 |
| Nc1ccn([C@@H]2CO[C@H](COC(=O)Oc3ccc(Cl)cc3)O2)c(=O)n1.O=C(O)C(F)(F)F [Compound 105, CARBONIC ACID 4-(4-A- MINO-2-OXO-2H-PYRI- MIDIN-1-YL)-[1,3]DI- OXOLAN-2-YLMETHYL ESTER 4-CHLORO-PHENYL ESTER TRIFLUOROACETATE SALT] | 2 393 |
| O=C(O)C(F)(F)F.O=c1nc(NC/C=C/c2ccccc2)ccn1[C@@H]1CO[C@H](CO)O1 [Compound 89, 1-(2-HYDROXYMETHYL-[1,3]DI- OXOLAN-4-YL)-4-(3-CIN- NAMYL)-1H-PYRI- MIDIN-2-ONE TRIFLUORO-ACETATE SALT] | 40 |
| O=C(Nc1ccn([C@@H]2CO[C@H](COC(=O)C34CC5CC(CC(C5)C3)C4)O2)c(=O)n1)C12CC3CC(CC(C3)C1)C2 [Compound 102, ADAMANTANE-1-CARBOXYLIC ACID 4-{4-[(ADAMANTANE-1-CAR- BONYL)-AMINO]-2-OX- O-2H-PYRIMIDIN-1-YL}-[1,3]DI- OXOLAN-2-YLMETHYL ESTER] | 27 |
| CCOC(=O)Nc1ccn([C@@H]2CO[C@H](CO)O2)c(=O)n1 [Compound 45, [1-(2-HYDROXYMETHYL-[1,3]DI- OXOLAN-4-YL)-2-OX- O-1,2-DIHYDRO-PYRI- MIDIN-4-YL]-CARBAMIC ACID ETHYL ESTER] | 63 |
| O=C(Nc1ccn([C@@H]2CO[C@H](COC(=O)Oc3ccc(Cl)cc3)O2)c(=O)n1)Oc1ccc(Cl)cc1 [Compound 103, CARBONIC ACID 4-[4-(4-CHLORO-PHENOXY- CARBONYLAMINO)-2-OX- O-2H-PYRIMIDIN-1-YL]-[1,3]DI- OXOLAN-2-YLMETHYL ESTER 4-CHLORO-PHENYL ESTER] | 4,545 |
| O=c1nc(NC2Sc3ccccc3S2)ccn1[C@@H]1CO[C@H](CO)O1 [Compound 136, 4-(BENZO[1,3]DITHIOL-2-YL- AMINO)-1-(2-HYDROXY- METHYL-[1,3]DI- OXOLAN-4-YL)-1H!PYRI- MIDIN-2-ONE] | >25 |
| O=C(Nc1ccn([C@@H]2CO[C@H](COC(=O)C34CC5CC(CC(C5)C3)C4)O2)c(=O)n1)OCc1ccccc1 [Compound 101, ADAMANTANE-1-CARBOXYLIC ACID 4-(4-BENZYL- OXYCARBONYLAMINO-2-OX- O-2H-PYRIMIDIN-1-YL)-[1,3]DI- OXOLAN-2-YLMETHYL ESTER] | 44 |
| CC(C)(C)C(=O)OC[C@H]1OC[C@@H](n2ccc(N)nc2=O)O1 [Compound 279, 2,2-DIMETHYL-PROPIONIC ACID 4-(4-AMINO-2-OXO-2H-PYRI- MIDIN-1-YL)-[1,3]DI- OXOLAN-2-YL METHYL ESTER] | 1854 and >1205 |
| CC(C)c1ccc(NC(=O)OC[C@H]2OC[C@@H](n3ccc(NC(=O)OCc4ccccc4)nc3=O)O2)cc1 [Compound 124, (1-[2-(4-ISOPROPYL-PHENYL- CARBAMOYLOXYMETHYL)-[1,3]DI- OXOLAN-4-YL]-2-OX- O-1,2-DIHYDRO-PYRI- MIDIN-4-YL}-CARBAMIC ACID BENZYL ESTER] | ˜2 |
| Nc1ccn([C@@H]2CO[C@H](COC(=S)Oc3ccccc3)O2)c(=O)n1 [Compound 147, THIOCARBONIC ACID O-[4(S)-(4′-A- MINO-2′-OXO-2H-PYRI- MIDIN-1′-YL)-[1,3]DI- OXOLAN-2(S)-YL- METHYL]ESTER O-PHENYL ESTER] | >4 000 |
| N=C(OC[C@H]1OC[C@@H](n2ccc(N)nc2=O)O1)C(Cl)(Cl)Cl [Compound 79, 2,2,2-TRICHLORO-ACETI- MIDIC ACID 4-(4-A- MINO-2-OXO-2H-PYRI- MIDIN-1-YL)-[1,3]DI- OXOLAN-2-YL- METHYL ESTER] | 4,500 |
| O=C(Nc1ccn([C@@H]2CO[C@H](CO)O2)c(=O)n1)Oc1ccccc1 [Compound 44, [1-(2-HYDROXYMETHYL-[1,3]DI- OXOLAN-4-YL)-2-OX- O-1,2-DIHYDRO-PYRI- MIDIN-4-YL]-CARBAMIC ACID PHENYL ESTER] | 1,300 |
| CC(C(=O)OC[C@H]1OC[C@@H](n2ccc(N)nc2=O)O1)C(c1ccccc1)c1ccccc1 (stereo partly drawn) [Compound 157, (2S,4S)-(3″-DIPHENYL-2″-METHYL- PROPIOXYMETHYL)-4-CYTO- SIN-1′-YL-1,3-DI- OXOLANE] | > 8330 |
| Nc1ccn([C@@H]2CO[C@H](COC3CCCCO3)O2)c(=O)n1 (stereo partly drawn) [Compound 41, 4-AMINO-1-[2-(TETRA- HYDRO-PYRAN-2-YLOXY- METHYL)-[1,3]DI- OXOLAN-4-YL]-1H-PYRI- MIDIN-2-ONE] | 5 |
| CCCCCCOC(=O)OC[C@H]1OC[C@@H](n2ccc(NC(=O)OCc3ccccc3)nc2=O)O1 [Compound 122, CARBONIC ACID 4-(4-BENZYLOXY- CARBONYLAMINO-2-OX- O-2H-PYRIMIDIN-1-YL)-[1,3]DI- OXOLAN-2-YLMETHYL ESTER HEXYL ESTER] | 86 |
| Nc1ccn([C@@H]2CO[C@H](COC(=O)Cc3ccccc3)O2)c(=O)n1 [Compound 52, (2S,4S)-2-PHENYL- ACETOXYMETHYL-4-CYTO- SIN-1′-YL-1,3-DI- OXOLANE] | 400 |
| CCC(C)(C)OC(C)OC[C@H]1OC[C@@H](n2ccc(N)nc2=O)O1 (mixture of isomers) [Compound 117, 4-AMINO-1-{2-[1-(1,1-DI- METHYL-PROPOXY)-ETH- OXYMETHYL]-[1,3]DI- OXOLAN-4-YL}-1H-PYRI- MIDIN-2-ONE] | 494 |
| COc1ccc(OC(=O)OC[C@H]2OC[C@@H](n3ccc(N)nc3=O)O2)cc1 [Compound 118, CARBONIC ACID 4-(4-A- MINO-2-OXO-2H-PYRI- MIDIN-1-YL)-[1,3]DI- OXOLAN-2-YLMETHYL ESTER 4-METHOXY-PHENYL ESTER] | >3 571 |

same assay, conditions: read-out: IC50 (3H-TdR incorporation at 72 hr) H-460 24 h; H-460 human lung carcinoma; 24 hr exposure to drug, wash, another 48 hr

| Compound | IC50 [µM] |
| --- | --- |
| Nc1ccn([C@@H]2CO[C@H](COC(=O)c3ccccc3F)O2)c(=O)n1 [Compound 190, 2-FLUORO-BENZOIC ACID 4-(4-AMINO-2-OXO-2H-PYRI- MIDIN-1-YL)-[1,3]DI- OXOLAN-2-YL METHYL ESTER] | 0.0039 |

same assay, conditions: read-out: IC50 (3H-TdR incorporation at 72 hr) MCF-7 24 h; MCF-7 human breast carcinoma; 24 hr exposure to drug, wash, another 48 hr

| Compound | IC50 [µM] |
| --- | --- |
| Nc1ccn([C@@H]2CO[C@H](COC(=O)c3ccccc3F)O2)c(=O)n1 [Compound 190, 2-FLUORO-BENZOIC ACID 4-(4-AMINO-2-OXO-2H-PYRI- MIDIN-1-YL)-[1,3]DI- OXOLAN-2-YL METHYL ESTER] | 0.016 |
